Patent publication US20160008298A1, “XANTHOHUMOL-BASED COMPOUNDS AND COMPOSITIONS THEREOF, AND METHODS OF MAKING AND USING THE SAME” (Oregon State University, priority 2014, published 2016)

Tests used:
[1] = tested on: C2C12 skeletal muscle cells; experiment: Seahorse OCR and ECAR measurements after oligomycin; format: cell-based, mouse; details: for increase in oxygen consumption: as summarised in Example 2
Method: OCR and ECAR measurements were performed with a Seahorse XF 24 Analyzer (Seahorse Bioscience). Cells were plated 24 hours prior to measurements at a density of 40,000 cells per well within growth medium in a 24-well plate. The cells were then allowed to adhere for 24 hours (37° C., 5% CO2). Prior to the assay, the cells were washed with freshly prepared running media consisting of Seahorse XF Assay medium (Seahorse Bioscience, North America, USA), 10 mM glucose and 1 mM sodium pyruvate. The pH of the medium was adjusted to 7.4 with 1 M NaOH. The cells were then equilibrated for one hour at 37° C. without CO2. The compounds were injected during the assay; OCR and ECAR were measured at 9 minutes measurement intervals. The solutions of oligomycin, FCCP, XN, DXN and TXN were freshly prepared in running medium. The final concentrations in the wells were: 1 μM for oligomycin, 5 μM for XN, DXN and TXN and 2, 5, 8, 25 μM for the dose response experiments with DXN. Ethanol was added to the control wells not to exceed a final concentration of 0.1%. All the compounds were tested in quadruplicate on the 24-well plate. XN is highly non-polar and FBS can be used to dissolve XN. Thus, XN, DXN and TXN were first dissolved in ethanol and the resulting solutions were diluted 100-fold in running medium containing 1% of FBS. After a further 10-fold dilution into the media in wells, only 0.1% of FBS was present during OCR measurements. […] The concentration of oligomycin and the cell density used were selected based on preliminary experiments.
Seahorse data were analyzed in SAS 9.2 (SAS Institute Inc., Cary, N.C.). To show a consistent baseline, OCR values (in pmol/min/mg protein) and ECAR values (in mpH/min/mg protein) for each value were divided prior to statistical analysis by the average of the four pre oligomycin treatment values (0, 8, 17, and 25 minutes) for the corresponding well and are shown as % pre oligomycin values. The original scale for OCR and for ECAR values was utilized for the OCR/ECAR ratio (in pMol/mpH). To account for repeated measures within wells over time, a repeated-measures-in-time design using ANOVA procedures in PROC MIXED was used. Fixed effects in the model were treatment (control, 2 μM DXN, 5 μM XN, 5 μM DXN, and 5 μM TXN for the compound study and control, 2, 5, 8, and 25 μM DXN for the DXN dosage study), time (0, 8, 17, 25, 34, 43, 52, 60, 69, 78, 86, and 95 minutes), and their interaction. The random effect was the experiment (5 experiments for the compound study and 3 experiments for the DXN dosage study). To account for repeated measures within wells over time, a first order homogeneous variance-covariance matrix [AR(1)] was fitted for each well. Using the ESTIMATE statement, a priori contrasts were constructed by comparing the changes in compound treated cells from the last two time points prior to compound treatment (average 52 and 60 minutes) to the changes in control cells during the same time period. This was done for each compound and dosage for 69, 78, 86, and 95 minutes separately and for all four time points combined. […] A P-value of 0.05 was considered statistically significant and is shown as star in the graphs (FIG. 5).

[2] = Mouse feeding experiment, weight gain; format: in vivo; details: 30 mg/kg/day in high fat diet, 12 weeks
Method: Over the course of 12 weeks, mouse weights were recorded once per week and the average weights were calculated for each group.

[3] = tested on: C57BL6/J mice; experiment: Plasma metabolites at sacrifice; format: in vivo, mouse; details: 14 weeks, 30 mg/kg/day; for Mean fasting plasma glucose at time of sacrifice: 6 hour fast, control 158.2±29.6; for Insulin level average: control 1.01±0.44; for Average plasma triglycerides: control 87.5±6.6; for Plasma cholesterol average: control 173.9±31.9
Method: The total number of C57BL6/J mice was 48, with 12 mice belonging to each of 4 treatment groups. Duration of the feeding was 14 weeks. Mouse feed contained high fat content (60% of kCal), and was supplemented with XN, DXN, or TXN in the treatment groups. XN, DXN and TXN content within the mouse diet were designed to deliver a dose of 30 mg/kg/day body weight. Food intake was measured three times per week by weighing the food pellet before placement in the cage, and at the time of feed changing by weighing uneaten food. Mice were unrestricted in dietary intake, being allowed to eat as much food as desired. Mice were weighed once per week. Groups included low dose (30 mg/kg) XN, DXN, TXN and no supplement control. Mice were maintained in accordance with the Oregon State University Institutional Animal Care and Use Committee (IACUC) regulations. One mouse was maintained on a standard AIN-93M chow diet to be used as a healthy reference during glucose tolerance assays.
Plasma was collected at sacrifice (14 weeks) to analyze for plasma glucose, triglycerides, cholesterol and insulin. Plasma glucose was assayed using the Wako Autokit Glucose kit (Wako Pure Chemical Industries, Ltd.). […] Samples were allowed to incubate for 5 minutes, and then the absorbance of each well was measured at a wavelength of 505 nm using a SpectraMax 190 spectrophotometer. Glucose was calculated using a 6-point calibration curve containing concentrations of 0, 25, 50, 100, 200 and 400 mg/dL.
Plasma triglycerides were measured using the Infinity™ Triglycerides Reagent kit (Thermo Fisher Scientific, Inc.). […] Absorbance at 500 nm was then measured on a SpectraMax 190 spectrophotometer. Triglyceride levels were calculated from a 6-point calibration curve.
Plasma cholesterol was measured using the Infinity™ Cholesterol Liquid Stable Reagent assay kit (Thermo Fisher Scientific, Inc.). Five μL of plasma from each sample was combined with 195 μL of Infinity™ Cholesterol Liquid Stable Reagent (50 mM phosphate buffer (pH 6.7) containing 200 U/L cholesterol oxidase, 500 U/L cholesterol esterase, 300 U/L peroxidase (horseradish), 0.25 mM 4-aminoantipyrine, 10 mM hydroxybenzoic acid) and incubated for 5 minutes at room temperature. Cholesterol absorbance was then measured using a SpectraMax 190 spectrophotometer at 500 nm, and concentrations were calculated using a 6-point calibration curve.
Plasma insulin levels were assayed using the ALPCO 80-INSMS-E01 mouse insulin enzyme-linked immunosorbent assay (ELISA) kit (ALPCO diagnostics, Salem, N.H.). Ten μL of plasma from each sample was loaded into a 96-well plate (provided in kit) and combined with 75 μL of provided conjugate buffer. The plate was placed on a shaker and incubated for 2 hours at room temperature while shaking at 800 rpm. The buffer was then discarded and the wells were washed 5 times with 100 μL of provided wash buffer. […] After incubation, 100 μL of stop solution was added to each well, and the plate was analyzed on a SpectraMax 190 spectrophotometer at 450 nm. Sample insulin concentrations were calculated using a 6-point calibration curve.

[4] = 5 μM, after oligomycin 1 μM, compound study, five independent experiments
[5] = 5 μM, oligomycin 1 μM, compound study, average of five independent experiments

With COc1cc(O)c(CC=C(C)C)c(O)c1C(=O)/C=C/c1ccc(O)cc1 [XN, xanthohumol] the “decrease in ECAR” value [1, 4] was 4.7±2.0%, the “increase in oxygen consumption” value ([1]; 5 μM) was “approximately 10%” and the “increase in OCR in the presence of oligomycin” value (“increase in OCR in the presence” for short) [1, 5] was 11.3±6.9%. The “effect on OCR at higher concentrations” value [1] was “tended to inhibit OCR”, the “weight gain compared to the control” value [2] was “followed DXN, then XN” and the “Mean fasting plasma glucose at time of sacrifice” value (“Mean fasting plasma glucose” below) [3] was 169.1 ± 28.7 mg/dL. The Insulin level average [3] was 1.19 ± 0.68 ng/mL, the Average plasma triglycerides [3] was 80.7 ± 4.2 mg/dL and the Plasma cholesterol average [3] was 196.2 ± 28.3 mg/dL.
For COc1cc(O)c(CC=C(C)C)c(O)c1C(=O)CCc1ccc(O)cc1 [DXN, α,β-dihydroxanthohumol], the “decrease in ECAR” value ([1]; 2 μM, DXN dosage study) was 8.0±2.4%, the “increase in OCR in the presence” value ([1]; 2 μM, DXN dosage study, three independent experiments) was 6±6% and the “decrease in ECAR” value ([1]; 2 μM, after oligomycin 1 μM, compound study, five independent experiments) was 5.9±2.0%. The “increase in OCR in the presence” value ([1]; 2 μM, oligomycin 1 μM, compound study, average of five independent experiments) was 8.9±7.0%, the “decrease in ECAR” value ([1]; 5 μM, DXN dosage study) was 25.2±2.3% and the “increase in OCR in the presence” value ([1]; 5 μM, DXN dosage study, three independent experiments) was 30.8±6.0%. For the same compound, the “decrease in ECAR” value [1, 4] was 17.8±2.0%, the “increase in oxygen consumption” value ([1]; 5 μM) was 20% and the “increase in OCR in the presence” value [1, 5] was 28.7±6.9%. For the same compound, the “decrease in ECAR” value ([1]; 8 μM, DXN dosage study) was 31.6±2.3%, the “increase in OCR in the presence” value ([1]; 8 μM, DXN dosage study, three independent experiments) was 55.1±6.0% and the “OCR response in the presence of oligomycin” value ([1]; 25 μM, DXN dosage study) was “initial increase in the OCR that was immediately followed by a sharp decrease”. The “decrease in ECAR” value ([1]; 25 μM, DXN dosage study) was 49.8±2.3%, the “weight gain compared to the control” value [2] was “followed DXN, then XN” and the “Mean fasting plasma glucose” value [3] was 150.5 ± 45.0 mg/dL. It also gave an Insulin level average [3] of 1.04 ± 0.77 ng/mL, an Average plasma triglycerides [3] of 84.5 ± 4.9 mg/dL and a Plasma cholesterol average [3] of 167.2 ± 33.3 mg/dL.
With COc1cc(O)c(CCC(C)C)c(O)c1C(=O)CCc1ccc(O)cc1 [TXN, tetrahydroxanthohumol] the “decrease in ECAR” value [1, 4] was 27.5±2.0%, the “increase in oxygen consumption” value ([1]; 5 μM) was 50% and the “increase in OCR in the presence” value [1, 5] was 56.8±6.9%. The “effect on OCR at higher concentrations” value [1] was “tended to inhibit OCR”, the “weight gain compared to the control” value [2] was “most dramatic reduction in weight gain compared to the control” and the “Mean fasting plasma glucose” value [3] was 116.1 ± 24.1 mg/dL. The Insulin level average [3] was 0.500 ± 0.24 ng/mL, the Average plasma triglycerides [3] was 76.4 ± 7.8 mg/dL and the Plasma cholesterol average [3] was 160.7 ± 30.7 mg/dL.
